From patent US20250026746A1, “ENHANCERS OF PARTICULATE GUANYLYL CYCLASE RECEPTOR A” (Mayo Foundation for Medical Education and Research, priority 2021, published 2025)

Molecular target: T1, human GC-A (Homo sapiens, UniProt P16066)
T1 construct: host or cells: HEK293
T1 sequence (P16066 33-1061): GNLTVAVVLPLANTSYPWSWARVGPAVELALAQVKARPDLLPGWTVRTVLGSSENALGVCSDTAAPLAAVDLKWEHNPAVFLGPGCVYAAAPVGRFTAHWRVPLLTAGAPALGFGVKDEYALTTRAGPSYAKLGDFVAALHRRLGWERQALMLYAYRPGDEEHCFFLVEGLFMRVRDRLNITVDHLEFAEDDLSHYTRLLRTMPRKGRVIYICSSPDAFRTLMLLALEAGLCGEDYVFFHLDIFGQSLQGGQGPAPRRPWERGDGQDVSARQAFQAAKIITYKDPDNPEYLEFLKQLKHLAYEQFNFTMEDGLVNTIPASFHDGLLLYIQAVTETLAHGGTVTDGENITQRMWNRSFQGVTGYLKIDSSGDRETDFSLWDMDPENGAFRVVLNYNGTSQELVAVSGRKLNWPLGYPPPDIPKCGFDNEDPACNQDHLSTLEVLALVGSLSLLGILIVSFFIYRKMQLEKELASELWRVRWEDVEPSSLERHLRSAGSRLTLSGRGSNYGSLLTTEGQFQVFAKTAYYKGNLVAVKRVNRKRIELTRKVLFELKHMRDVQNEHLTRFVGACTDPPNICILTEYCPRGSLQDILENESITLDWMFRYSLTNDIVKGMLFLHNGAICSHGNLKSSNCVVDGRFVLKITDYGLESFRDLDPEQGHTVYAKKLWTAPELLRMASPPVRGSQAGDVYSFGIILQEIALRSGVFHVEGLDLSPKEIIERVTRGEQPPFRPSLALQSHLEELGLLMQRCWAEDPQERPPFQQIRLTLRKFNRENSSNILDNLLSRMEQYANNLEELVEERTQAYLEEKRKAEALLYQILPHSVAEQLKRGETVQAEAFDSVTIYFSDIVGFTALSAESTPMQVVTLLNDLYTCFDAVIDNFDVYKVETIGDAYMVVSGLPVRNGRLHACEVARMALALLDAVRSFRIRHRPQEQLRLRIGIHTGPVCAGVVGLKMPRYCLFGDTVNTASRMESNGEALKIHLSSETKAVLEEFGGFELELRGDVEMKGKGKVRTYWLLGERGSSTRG
T1 sequence (P01160 124-151 partner limits assumed): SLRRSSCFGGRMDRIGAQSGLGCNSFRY
Assay: EC50 and Emax cGMP determination, HTRF, human GC-A overexpressing HEK293 cells
Assay type: cell-based
Details: HEK293 GC-A cells
Procedure: Test compounds were evaluated for potentiation of cGMP in human GC-A overexpressing HEK293 cells (Cardiorenal Research Laboratory, Mayo Clinic). Test compounds at 10 mM DMSO stock concentration were dispensed into 384 well small volume white plates using Tecan D300e digital dispenser starting at 5 μM or 40 μM concentration and diluted 2-fold for 10-point concentration response. Wells were backfilled with DMSO such that the final concentration of DMSO in all wells was maintained at 0.3% DMSO. Atrial natriuretic peptide (ANP, Phoenix Pharmaceuticals) ANP was prepared as working stock aliquots at 5 μM in phosphate-buffered solution (PBS) with 0.1% bovine serum albumin (BSA) and diluted to […] in buffer plus Tween20 at 0.3% and added to plates to a final concentration equivalent to EC20 ANP in the cGMP assay. GC-A cells in suspension ([…]) in OptiMem media (ThermoFisher 11058-021) supplemented with 2% fetal bovine serum were plated at 1×10^6 cells/mL and assay plates were spun at 1000 rpm for 30 sec and incubated at room temperature for 30 min. GC-A-mediated activation of cGMP production was measured using cGMP CisBio detection homogenous time-resolved florescence (HTRF) competition assay using labeled-cGMP in human GC-A-overexpressing HEK293 cells. 5 μL of d-2 acceptor was dispensed into each well followed by addition of 5 μL of Anti-cGMP Eu-Cryptate antibody donor and plates were spun at 1000 rpm for 30 sec and incubated in the dark at room temperature for 1 hr. HTRF florescence was read on the ClarioStar microplate reader (BMG). A 100% response was determined from wells in the absence of compound and presence of saturating concentration of ANP (10 nM), and 0) % response was determined from wells containing an EC20 concentration of ANP determined for each new lot of ANP. Concentration-response curves for test compounds were analyzed by […] analysis using GraphPad software to determine EC50 and Emax values.

## CN(C)CCN1CCC[C@H](C(=O)Nc2nc3c(F)cc(F)cc3s2)C1 [Compound 1, (S)-N-(4,6-difluorobenzo[d]thiazol-2-yl)-1-(2-(dimethylamino)ethyl) piperidine-3-carboxamide]
  potency in potentiating ANP-mediated cGMP generation (comparison between forms/enantiomers): more potent
